# Results taken from patent US10597388B2, “Pyridazinone herbicides” (FMC CORPORATION, priority 2014, dated 2020).
# Key:
# Assay in all cases: Test D controlled growth environment herbicide test, pre- and postemergence
# Format in all cases: in vivo
# [1] = system: barley, winter (winter barley, Hordeum vulgare)
# Summary of the method: (§1)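 Rating is visual, 0–100 scale (100 = complete control), made against untreated plants 14–21 d after treatment in controlled growth conditions. Postemergence sprays went onto 1- to 4-leaf plants in peat medium; preemergence sprays onto silt loam after sowing; formulation included a surfactant.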
# [2] = system: blackgrass (Alopecurus myosuroides)
# Summary of the method: as §1
# [3] = system: bromegrass, downy (downy bromegrass, Bromus tectorum)
# Summary of the method: as §1
# [4] = system: buckwheat, wild (wild buckwheat, Polygonum convolvulus)
# Summary of the method: as §1
# [5] = system: canarygrass (Phalaris minor)
# Summary of the method: as §1
# [6] = system: chamomile (scentless chamomile, Matricaria inodora)
# Summary of the method: as §1
# [7] = system: chickweed (common chickweed, Stellaria media)
# Summary of the method: as §1
# [8] = system: field poppy (Papaver rhoeas)
# Summary of the method: as §1
# [9] = system: galium (catchweed bedstraw, Galium aparine)
# Summary of the method: as §1
# [10] = system: lambsquarters (Chenopodium album)
# Summary of the method: as §1
# [11] = system: oilseed rape (Brassica napus)
# Summary of the method: as §1
# [12] = system: ryegrass, Italian (Italian ryegrass, Lolium multiflorum)
# Summary of the method: as §1
# [13] = system: speedwell (bird's-eye speedwell, Veronica persica)
# Summary of the method: as §1
# [14] = Postemergence, 31 g ai/ha, scale 0 to 100 (0 no effect, 100 complete control)
# [15] = Postemergence, 125 g ai/ha, visual rating on scale 0 (no effect) to 100 (complete control), 14 to 21 d
# [16] = Postemergence, 250 g ai/ha, scale 0 to 100 (0 no effect, 100 complete control)
# [17] = Preemergence, 62 g ai/ha, scale 0 to 100 (0 no effect, 100 complete control)
# [18] = Preemergence, 125 g ai/ha, scale 0 to 100 (0 no effect, 100 complete control)
# [19] = Preemergence, 250 g ai/ha, scale 0 to 100 (0 no effect, 100 complete control)
# [20] = postemergence, 62 g ai/ha, scale 0 to 100, 0 no effect, 100 complete control
smiles,measurement,setting,value
CCC(=O)Oc1c(C)nn(C)c(=O)c1-c1c(C)sc2c(C)cc(C)cc12 [Compound 28],"Plant response rating, Barley, Winter",[1]; [14],0
same,"Plant response rating, Barley, Winter",[1]; [15],5
same,"Plant response rating, Barley, Winter",[1]; [16],5
same,"Plant response rating (scale of 0 to 100), Barley, Winter","[1]; Preemergence, 31 g ai/ha",0
same,"Plant response rating, Barley, Winter",[1]; [17],0
same,"Plant response rating, Barley, Winter",[1]; [18],15
same,"Barley, Winter plant response rating",[1]; [19],15
same,"Plant response rating, Barley, Winter",[1]; [20],0
same,Blackgrass plant response rating,[2]; [14],75
same,"Plant response rating, Blackgrass",[2]; [15],85
same,"Plant response rating, Blackgrass",[2]; [16],85
same,"Plant response rating (scale of 0 to 100), Blackgrass","[2]; Preemergence, 31 g ai/ha",85
same,"Plant response rating, Blackgrass",[2]; [17],85
same,"Plant response rating, Blackgrass",[2]; [18],85
same,Blackgrass plant response rating,[2]; [19],95
same,"Plant response rating, Blackgrass",[2]; [20],80
same,"Bromegrass, Downy plant response rating",[3]; [14],15
same,"Plant response rating, Bromegrass, Downy",[3]; [15],40
same,"Plant response rating, Bromegrass, Downy",[3]; [16],70
same,"Plant response rating (scale of 0 to 100), Bromegrass, Downy","[3]; Preemergence, 31 g ai/ha",45
same,"Plant response rating, Bromegrass, Downy",[3]; [17],55
same,"Plant response rating, Bromegrass, Downy",[3]; [18],70
same,"Plant response rating, Bromegrass, Downy",[3]; [19],85
same,"Plant response rating, Bromegrass, Downy",[3]; [20],25
same,"Buckwheat, Wild plant response rating",[4]; [14],100
same,"Plant response rating, Buckwheat, Wild",[4]; [15],100
same,"Plant response rating, Buckwheat, Wild",[4]; [16],100
same,"Plant response rating (scale of 0 to 100), Buckwheat, Wild","[4]; Preemergence, 31 g ai/ha",0
same,"Plant response rating, Buckwheat, Wild",[4]; [17],0
same,"Plant response rating, Buckwheat, Wild",[4]; [18],20
same,"Plant response rating, Buckwheat, Wild",[4]; [19],100
same,"Plant response rating, Buckwheat, Wild",[4]; [20],100
same,Canarygrass plant response rating,[5]; [14],75
same,"Plant response rating, Canarygrass",[5]; [15],80
same,"Plant response rating, Canarygrass",[5]; [16],85
same,"Plant response rating (scale of 0 to 100), Canarygrass","[5]; Preemergence, 31 g ai/ha",85
same,"Plant response rating, Canarygrass",[5]; [17],85
same,"Plant response rating, Canarygrass",[5]; [18],95
same,"Plant response rating, Canarygrass",[5]; [19],95
same,"Plant response rating, Canarygrass",[5]; [20],75
same,Chamomile plant response rating,[6]; [14],85
same,"Plant response rating, Chamomile",[6]; [15],90
same,"Plant response rating, Chamomile",[6]; [16],95
same,"Plant response rating (scale of 0 to 100), Chamomile","[6]; Preemergence, 31 g ai/ha",100
same,"Plant response rating, Chamomile",[6]; [17],95
same,"Plant response rating, Chamomile",[6]; [18],100
same,"Plant response rating, Chamomile",[6]; [19],100
same,"Plant response rating, Chamomile",[6]; [20],90
same,Chickweed plant response rating,[7]; [14],100
same,"Plant response rating, Chickweed",[7]; [15],100
same,"Plant response rating, Chickweed",[7]; [16],100
same,"Plant response rating (scale of 0 to 100), Chickweed","[7]; Preemergence, 31 g ai/ha",100
same,"Plant response rating, Chickweed",[7]; [17],100
same,"Plant response rating, Chickweed",[7]; [18],100
same,"Plant response rating, Chickweed",[7]; [19],100
same,"Plant response rating, Chickweed",[7]; [20],100
same,Field Poppy plant response rating,[8]; [14],80
same,"Plant response rating, Field Poppy",[8]; [15],100
same,"Plant response rating, Field Poppy",[8]; [16],100
same,"Plant response rating (scale of 0 to 100), Field Poppy","[8]; Preemergence, 31 g ai/ha",100
same,"Plant response rating, Field Poppy",[8]; [17],95
same,"Plant response rating, Field Poppy",[8]; [18],95
same,"Plant response rating, Field Poppy",[8]; [19],100
same,"Plant response rating, Field Poppy",[8]; [20],90
same,Galium plant response rating,[9]; [14],100
same,"Plant response rating, Galium",[9]; [15],100
same,"Plant response rating, Galium",[9]; [16],100
same,"Plant response rating (scale of 0 to 100), Galium","[9]; Preemergence, 31 g ai/ha",15
same,"Plant response rating, Galium",[9]; [17],60
same,"Plant response rating, Galium",[9]; [18],85
same,"Plant response rating, Galium",[9]; [19],100
same,"Plant response rating, Galium",[9]; [20],100
same,Lambsquarters plant response rating,[10]; [14],80
same,"Plant response rating, Lambsquarters",[10]; [15],90
same,"Plant response rating, Lambsquarters",[10]; [16],90
same,"Plant response rating (scale of 0 to 100), Lambsquarters","[10]; Preemergence, 31 g ai/ha",100
same,"Plant response rating, Lambsquarters",[10]; [17],100
same,"Plant response rating, Lambsquarters",[10]; [18],100
same,"Plant response rating, Lambsquarters",[10]; [19],100
same,"Plant response rating, Lambsquarters",[10]; [20],85
same,Oilseed Rape plant response rating,[11]; [14],65
same,"Plant response rating, Oilseed Rape",[11]; [15],65
same,"Plant response rating, Oilseed Rape",[11]; [16],85
same,"Plant response rating (scale of 0 to 100), Oilseed Rape","[11]; Preemergence, 31 g ai/ha",0
same,"Plant response rating, Oilseed Rape",[11]; [17],0
same,"Plant response rating, Oilseed Rape",[11]; [18],10
same,"Plant response rating, Oilseed Rape",[11]; [19],25
same,"Plant response rating, Oilseed Rape",[11]; [20],65
same,"Ryegrass, Italian plant response rating",[12]; [14],75
same,"Plant response rating, Ryegrass, Italian",[12]; [15],80
same,"Plant response rating, Ryegrass, Italian",[12]; [16],85
same,"Plant response rating (scale of 0 to 100), Ryegrass, Italian","[12]; Preemergence, 31 g ai/ha",90
same,"Plant response rating, Ryegrass, Italian",[12]; [17],95
same,"Plant response rating, Ryegrass, Italian",[12]; [18],100
same,"Plant response rating, Ryegrass, Italian",[12]; [19],100
same,"Plant response rating, Ryegrass, Italian",[12]; [20],80
same,Speedwell plant response rating,[13]; [14],60
same,"Plant response rating, Speedwell",[13]; [15],100
same,"Plant response rating, Speedwell",[13]; [16],100
same,"Plant response rating (scale of 0 to 100), Speedwell","[13]; Preemergence, 31 g ai/ha",95
same,"Plant response rating, Speedwell",[13]; [17],95
same,"Plant response rating, Speedwell",[13]; [18],95
same,"Plant response rating, Speedwell",[13]; [19],100
same,"Plant response rating, Speedwell",[13]; [20],85
